Data reported in PubChem BioAssay AID540252 (Sanford-Burnham Center for Chemical Genomics, 2011).
Calls of active or inactive are those of the source. The rule behind the calls is not given here.

What follows are compounds tested against glucose-6-phosphate dehydrogenase-6-phosphogluconolactonase (Plasmodium falciparum 3D7) (assay: inhibition of P. falciparum G6PD activity – biochemical, end-point NADPH detection, orthogonal assay, dose response (AID 540252)). Details: purified PfG6PD enzyme, NADPH direct detection.

SMILES	IC50
CC1=NOC(=O)/C1=C\c1ccc(-c2ccccc2Br)o1	> 80 µM (inactive)
COc1ccc(Nc2cc(C)c3c(O)cccc3n2)cc1	> 80 µM (inactive)
CN(C)c1nc(=NCc2cccs2)ss1	> 80 µM (inactive)
c1ccc(-c2cn3c(n2)CCc2ccc4cccnc4c2-3)cc1	> 80 µM (inactive)
CN(C)c1ccc2nc3ccc(=O)cc-3sc2c1	> 80 µM (inactive)
CCN1CCN(C(=S)c2ccc(Cl)c(Cl)c2)CC1	> 80 µM (inactive)
COc1cc(C(=O)O/N=C2/C=C(C)C(=O)C=C2C)cc(OC)c1OC	> 80 µM (inactive)
c1cncc(CNc2ccc3c(c2)OCO3)c1	> 80 µM (inactive)
CCN(CC)CCNC(=O)CCCCn1c(=S)[nH]c2c([nH]c3ccc(OC)cc32)c1=O	> 80 µM (inactive)
COc1cc(N=c2ssnc2Cl)c(OC)cc1Cl	29.2 µM
COCc1cc(=O)n2[nH]c(C(C)(C)C)cc2n1	> 80 µM (inactive)
O=C(CCC(=O)OCC(=O)c1ccc([N+](=O)[O-])cc1)Nc1ccccc1Cl	53 µM
Cc1cc(C)nc(/N=C(\N)Nc2ccccc2-c2ccccc2)n1	> 80 µM (inactive)
Cc1ccc(S(=O)(=O)N(C(=O)c2ccncc2)c2ccc(OC(=O)c3ccncc3)c3ccccc23)cc1	> 80 µM (inactive)
COc1cccc(CNc2ccc3[nH]c(=O)[nH]c3c2)c1OCc1ccc(F)cc1	> 80 µM (inactive)
O=C(CSc1nc2ccc(Cl)cc2[nH]1)NC1CCCc2ccccc21 (stereo not given)	> 80 µM (inactive)
CC(=O)Nc1ccc(S(=O)(=O)/N=C2\C(=O)c3ccccc3C([O-])=C2n2cc[n+](-c3ccccn3)c2)cc1	> 80 µM (inactive)
O=C(Nc1nnc(S(=O)(=O)N2CCCCCC2)s1)c1cccc(Br)c1	> 80 µM (inactive)
C[C@H](NC(N)=O)C(=O)Nc1ccc(N2CCOCC2)c(S(=O)(=O)Nc2ccc(Cl)cc2)c1	> 80 µM (inactive)
COC1=C(Br)C(=O)c2nc(C)ccc2C1=O	> 80 µM (inactive)
COc1ccc(C(=O)ON=C2C=C(C)C(=O)C(C)=C2)cc1	> 80 µM (inactive)
CC1CN(c2ccccc2)NC1=O (stereo not given)	> 80 µM (inactive)
CCOc1cc(CNc2ccc(N3CCCC3)cc2)cc(Cl)c1OC	> 80 µM (inactive)
O=C(O)c1cc(N2C(=O)C=CC2=O)cc(N2C(=O)C=CC2=O)c1	18.9 µM
Cc1cc(C)c2c(=O)n(CC(=O)N3CCC(N4CCCCC4)CC3)sc2n1	> 80 µM (inactive)

SMILES	IC50
Cc1ccc(-c2csc(NC(=O)c3ccc(Br)cc3)c2C(=O)O)cc1	> 80 µM (inactive)
O=C(CNC(=O)c1ccco1)OCC(=O)c1ccc([N+](=O)[O-])cc1	48.4 µM
CC(=O)Nc1ccc2c(c1)Cc1cc(N3C(=O)C=CC3=O)ccc1-2	23.7 µM
Cc1ccc(-c2nc(N3CCOCC3)s[n+]2-c2ccccc2)cc1	> 80 µM (inactive)
Cc1ccc(S(=O)c2ccc([N+](=O)[O-])c3nonc23)cc1 (stereo not given)	60 µM
O=C(CSc1nc2ccccc2[nH]1)NC1CCCc2ccccc21 (stereo not given)	> 80 µM (inactive)
O=c1c2ccccc2sn1-c1ccccc1	7.9 µM
COC1(OC)C=CC(=O)C=C1NC(=O)c1ccccc1OC(C)=O	> 80 µM (inactive)
CCn1c2ccccc2c2nc3cc(S(=O)(=O)N4CCOCC4)ccc3nc21	> 80 µM (inactive)
CCC(=O)OCCNc1cc(Sc2nc3ccccc3s2)c2nonc2c1[N+](=O)[O-]	> 80 µM (inactive)
COc1ccc(-c2cn3cc(C)ccc3n2)cc1Br	> 80 µM (inactive)
Cc1[nH]c2ccccc2c1/C=N/NC(=O)c1cccc(S(=O)(=O)Nc2ccccc2Cl)c1	> 80 µM (inactive)
Cc1ccsc1/C=N\NC(=O)CC(=O)NCc1ccccc1	> 80 µM (inactive)
O=C(O)CSc1cc(NS(=O)(=O)c2cccc([N+](=O)[O-])c2)c2ccccc2c1O	> 80 µM (inactive)
O=c1ccsn1Cc1ccccc1	55.8 µM
O=C(Nc1sc2c(c1C(=O)O)CCC2)c1ccc(F)cc1	> 80 µM (inactive)
CCC(C)(C)c1nnc(NC(=O)C2CCN(C(=O)c3ccco3)CC2)s1	> 80 µM (inactive)
Cc1ccc2nc3sc(C(=O)N4CCOCC4)c(N)c3cc2c1	> 80 µM (inactive)
NS(=O)(=O)c1ccc(N/N=C/c2ccc(O)c(O)c2O)c([N+](=O)[O-])c1	36.3 µM
Cc1ccc(NC(=O)c2cc(C)n(-c3ccccc3)c2C)cc1	> 80 µM (inactive)
C[C@]12CC[C@@H]3c4ccc(O)c(O)c4CC[C@H]3[C@@H]1CC[C@@H]2O	22.3 µM
CN=c1scc(C)n1/N=C/c1ccc(O)c(O)c1O	> 80 µM (inactive)
Nc1c(O)cccc1C(=O)O	> 80 µM (inactive)
COc1ccc(N=C2C(=S)N(c3ccc(OC)cc3)C(=NS(=O)(=O)c3ccccc3)N2c2ccccc2)cc1	> 80 µM (inactive)
COc1cc(N)c2ncccc2c1OC	> 80 µM (inactive)

SMILES	IC50
COC1=CC(=O)C=C(OC)C1(O)CC(C)=O	> 80 µM (inactive)
COc1cc(SSc2cc(OC)cc([N+](=O)[O-])c2N)c(N)c([N+](=O)[O-])c1	13.1 µM
CCN1CCCC1CNC(=O)c1ccc2c(c1)NC(=O)/C(=C\c1ccccc1Cl)S2 (stereo not given)	> 80 µM (inactive)
O=c1[nH]c2ccc(NCc3ccccc3OCc3ccc(Cl)cc3)cc2[nH]1	> 80 µM (inactive)
CC(=O)OCC1(C)CN(c2ccccc2)NC1=O (stereo not given)	> 80 µM (inactive)
Nc1[nH]c(=O)[nH]c(=O)c1N=Cc1ccccc1	> 80 µM (inactive)
Cc1[nH]c(=S)c(C#N)c(C)c1CCC#N	> 80 µM (inactive)
CN=c1nc(-c2ccccc2)n(-c2ccccc2)s1	13.3 µM
COc1cc(/C=C2\CC/C(=C\c3cc(OC)c(O)c(OC)c3)C2=O)cc(OC)c1O	> 80 µM (inactive)
CCN1/C(=C/C=C/C=C/C=C/c2sc3ccccc3[n+]2CC)Sc2ccccc21	> 80 µM (inactive)
Cc1ccccc1OCC(=O)NCC(=O)OCC(=O)c1ccc([N+](=O)[O-])cc1	50.1 µM
COC1=C(OC)C(=O)C(Sc2ccc3ccccc3c2)=CC1=O	30.2 µM
O=C1C=CC(=O)N1c1ccc(N2CCCCC2)cc1	38 µM
Cc1cc(O)c(C(C)C)cc1N=Cc1ccccc1[N+](=O)[O-]	> 80 µM (inactive)
CCS(=O)(=O)N1CCN(c2ccc([N+](=O)[O-])c(NC(C)c3ccccc3)c2)CC1 (stereo not given)	> 80 µM (inactive)
O=c1c2ccc(F)cc2sn1-c1ccccc1	14.5 µM
Cc1nc2ccc(Nc3nc4cc(S(=O)(=O)N5CCOCC5)ccc4o3)cc2s1	> 80 µM (inactive)
COc1ccc(CN(C)S(=O)(=O)c2nnc(NC(=O)c3ccc(C)cc3)s2)cc1OC	> 80 µM (inactive)
O=C(Nc1nnc(C2CC2)s1)c1ccc(Cl)nc1	> 80 µM (inactive)
CCOC(=O)c1c2ccc(OCC(=O)NN)cc2n2ccccc12	> 80 µM (inactive)
CC1COCC(C)N1C1=C(Cl)C(=O)c2ccccc2C1=O (stereo not given)	> 80 µM (inactive)
[O-]/[N+](=C\c1ccncc1)c1ccccc1	> 80 µM (inactive)
COc1ccc(NC(=S)N(CCC(C)C)C2CCN(C(C)C)CC2)cc1Cl	> 80 µM (inactive)
S=C(NN=Cc1ccccn1)N(Cc1ccccn1)Cc1ccccn1	> 80 µM (inactive)
CS(=O)(=O)c1ccc(N)c(SSc2cc(S(C)(=O)=O)ccc2N)c1	17.6 µM
